Data as given in patent US20230201285A1, “GRANULAR C[…] WATER DISPERSIBLE CANNABINOIDS AND METHODS OF MAKING THE SAME” (priority 2021, published 2023).

Test: Emulsion formation of CBD powder in water with emulsifier or co-solvent
Format: physicochemical
Settings: 200 mg CBD powder, 40 mL water, shaken five minutes
Experimental: A study was conducted with several different emulsifiers or co-solvents added to water and CBD powder.
In a first experiment, five 50 mL centrifuge tubes were each filled with 40 mL of water and 200 mg of CBD powder. Then, increasing amounts of PEG-400 (65 mg, 130 mg, 195 mg, 260 mg, and 650 mg) were added respectively to each centrifuge tube, which were then placed on a tabletop shaker and mechanically shaken on high for five minutes. […] No emulsion, however, was immediately formed after mixing.
In a second experiment, four 50 mL centrifuge tubes were each filled with 40 mL of water and 200 mg of CBD powder. Then, increasing amounts of TWEEN 80 (160 mg, 320 mg, 800 mg, and 1600 mg) were added respectively to each centrifuge tube, which were then placed on a tabletop shaker and mechanically shaken on high for five minutes. […] Further, CBD powder was still floating around in each tube.
(§1) In a third experiment, four 50 mL centrifuge tubes were each filled with 40 mL of water and 200 mg of CBD powder. Then, increasing amounts of sodium dodecyl sulfate (SDS) (10 mg, 25 mg, 50 mg, and 100 mg) were added respectively to each centrifuge tube, which were then placed on a tabletop shaker and mechanically shaken on high for five minutes. […] Further, CBD residue was observed on the bottom of each tube.
as §1, with “Finally, in” for “In”, “fourth” for “third”, “glycerol monostearate (GMS)” for “sodium dodecyl sulfate (SDS)”, “bottom and sides” for “bottom”

## C=C(C)[C@@H]1CCC(C)=C[C@H]1c1c(O)cc(CCCCC)cc1O [CBD powder, cannabidiol]
GMS 10-100 mg
  emulsion formation: no emulsion was formed in any tube
PEG-400 65-650 mg
  emulsion formation: No emulsion
SDS 10-100 mg
  emulsion formation: no emulsion was formed in any tube
TWEEN 80 160-1600 mg
  emulsion formation: no emulsion was formed in any tube
